Assays:
[1] = system: wound skin tissues; test: Apoptosis by TUNEL in wound skin tissues of STZ mice; type: in vivo, mouse
Excerpt: Diabetes mouse model and treatments. Nrf2^+/+ and Nrf2^-/- C57BL/6 mice were described previously (see, e.g., Jiang T, et al., Diabetes 59:850-860, 2010) and were housed and handled in accordance with the University of Arizona Institutional Animal Care policies. The STZ-induced diabetic model was previously described (see, e.g., Zheng H, et al., Diabetes 60:3055-3066, 2011) and only 8 week old male mice were included in this study. Briefly, three weeks after STZ injections, fasting glucose levels (FGL, 4 h fast) were measured using the AlphaTRAK system (Abbott Laboratory, North Chicago, Ill.) and mice with a FGL higher than or equal to 250 mg/dL were considered diabetic and included in the study (see, e.g., FIG. 2A and FIG. 3A for a detailed timeline). […] Gross wound closure was quantified by ImageJ software, and wound healing was expressed as the percentage of the original wound area that had healed. […] ROS were measured in HaCaT cells using DCF. […] Then, 48 h later, the cells were switched into fresh medium containing 10 μg/mL DCF, incubated 30 min, and fluorescence intensity was measured by flow cytometry. […] For this, 8000 HaCaT cells/well were seeded in LG or HG media, with or without an NRF2 activator, and cell growth was monitored for 72 h. […]

[2] = system: NRF2 pathway; test: Immunoblot of NRF2 pathway in HaCaT cells under high glucose; type: cell-based, human; details: HaCaT in high glucose (HG); 5 μmol/L SF or 20 μmol/L CA; 48 h
Method: Human immortalized keratinocytes HaCaT were obtained from the Arizona Cancer Center (see, e.g., Boukamp P, et al., J Cell Biol 106:761-771, 1988). Cells were grown in Dulbecco's modified Eagle's medium (DMEM) containing low glucose (LG, 5.5 mmol/L) and 10% fetal bovine serum (FBS) in an incubator at 37° C. with 5% CO2. For the experiments, the cells were starved in serum-free LG DMEM for 24 h, then either maintained in LG DMEM or switched to high glucose (HG, 25 mmol/L) DMEM for 2 days (see, e.g., Zheng H, et al., Diabetes 60:3055-3066, 2011; Lan C C, et al., Br J Dermatol 159:1103-1115, 2008). For the treatments, the cells were dosed with 5 μmol/L SF or 20 μmol/L CA.
siRNA transfections. HaCaT cells were transfected with either a non-specific, control small interfering RNA (Con-siRNA, #1027281, Qiagen, Valencia, Calif.) or an NRF2-specific siRNA (#S100657937) using the HiPerfect transfection reagent (Qiagen) according to the manufacturer's instructions. Briefly, cells were maintained in LG or HG DMEM for 2 days and then transfected with either control or NRF2 siRNA for migration, proliferation, and apoptosis experiments. For the ROS detection, cells were maintained in LG DMEM and transfected with either control or NRF2 siRNA; 24 h later, the cells were switched to HG DMEM and treated as indicated.
Cultured HaCaT cells were harvested in 1× sample buffer (50 mM Tris-HCl pH 6.8, 2% sodium dodecyl sulfate (SDS), 10% glycerol, 100 mM dithiothreitol (DTT), 0.1% bromophenol blue), boiled and sonicated. Total cell lysates were resolved by SDS-PAGE and subjected to immunoblot analyses with the indicated antibodies. For the detection of the secreted proteins TGF-β1 and MMP9, cells were incubated 24 h in serum-free media before harvesting the medium. TGF-β1 was measured using the Quantikine human TGF-β1 immunoassay kit (R&D systems; Minneapolis, Minn.) according to the manufacturer's instructions. The absorbance at 450 nm was measured using a Synergy 2 microplate reader (BioTek, Winooski, Vt.) and the amount of TGF-β1 was calculated by standard curve. MMP9 activity was evaluated by gelatin zymography as described elsewhere (see, e.g., Toth M, et al., Methods Mol Biol 878:121-135, 2012; Zhu P, et al., Exp Dermatol 21:123-129, 2012). Briefly, the supernatant was concentrated using Amicon Ultra-0.5 mL centrifugal filters (Merck Milipore, Darmstadt, Germany) (10 kDa cut off), mixed with non-reducing sample buffer and subjected to electrophoresis in 10% polyacrylamide-0.1% w/v gelatin gels. The gels were then washed in 2.5% Triton X-100 to remove SDS and incubated with developing buffer (50 mM Tris-HCl, pH 7.6, 1 μM ZnCl2 and 5 mM CaCl2) at 37° C. for 36 h. Gels were subsequently stained with 0.2% Coomassie blue and were analyzed with ImageJ.

Row | SMILES | apoptosis (TUNEL) [1] | protein levels of HO-1, AKR1C1, and NQO1 [2] | protein levels of NRF2 [2]
1 | O=CC=Cc1ccccc1 [CA, Cinnamaldehyde] | reduced apoptosis to a lesser extent than in Con | further induced | further NRF2 induction
2 | C[S@@+]([O-])CCCCN=C=S [SF, L-sulforaphane] | reduced apoptosis to a lesser extent than in Con | further induced | further NRF2 induction

Source: US20180344680A1, “COMPOSITIONS AND METHODS FOR TREATMENT, AMELIORATION, AND PREVENTION OF DIABETES-RELATED SKIN ULCERS” (THE ARIZONA BOARD OF REGENTS ON BEHALF OF THE UNIVERSITY OF …, priority 2015, published 2018)
